From patent publication US10538554B2, “Peptides and uses therefor as antiviral agents” (priority 2015, dated 2020)
Read-outs that look alike come from different tables or passages of the source. Bridge positions count the residues as written; N and C are the ends. Square brackets hold non-standard residues; d marks the D form. Peptide text beside a SMILES is read from it.

What was measured:
H9N2 A/Iran/16/2000 = details: 48 h
[1] = tested on: H1N1 A1/Malaysia/302/1954; details: A1/Malaysia/302/1954, 48 h
H3N8 A/Miami/2/63 = details: A/Miami/2/63, 48 h
H3N2 A/HK/8/1968 = details: A/HK/8/1968, 48 h

Structure (SMILES) | % inhibition H9N2 (H9N2 A/Iran/16/2000; 500 μM) [%] | % inhibition H1N1 ([1]; 500 μM) [%] | % inhibition H3N8 (H3N8 A/Miami/2/63; 500 μM) [%] | % inhibition H3N2 (H3N2 A/HK/8/1968; 500 μM) [%] | % inhibition H9N2 (H9N2 A/Iran/16/2000; 50 μM) [%] | % inhibition H1N1 ([1]; 50 μM) [%] | % inhibition H3N8 (H3N8 A/Miami/2/63; 50 μM) [%] | % inhibition H3N2 (H3N2 A/HK/8/1968; 50 μM) [%]
C[C@H](O)[C@H]1NC(=O)[C@H](N)CSSC[C@H](C(=O)O)NC(=O)[C@@H](CC(N)=O)NC(=O)[C@@H](C)NC(=O)[C@@H](Cc2ccccc2)NC(=O)[C@@H](CCCNC(=N)N)NC(=O)[C@@H](CO)NC(=O)[C@@H](CCCCN)NC1=O [PSP 1, H-ctksrfanc-OH] (H-[dC][dT][dK][dS][dR][dF][dA][dN][dC]-OH; disulfide 1-9) | 36.4 | 29.4 | 79.4 | 70.4 | – | – | – | –
CC[C@@H](C)[C@H]1NC(=O)[C@@H](Cc2ccccc2)NC(=O)[C@@H](CCCNC(=N)N)NC(=O)[C@@H](CCC(N)=O)NC(=O)[C@@H](Cc2c[nH]c3ccccc23)NC(=O)[C@@H]([C@H](C)O)NC(=O)[C@H](NC(=O)[C@H](CCCCN)NC(=O)[C@H](CCCCN)NC(=O)[C@H](CCCNC(=N)N)NC(=O)[C@@H](N)CCCNC(=N)N)CSSC[C@H](C(=O)O)NC(=O)[C@@H](CC(N)=O)NC1=O [PSP III B14, H-RRKKctwqrfinc-OH] (H-RRKK[dC][dT][dW][dQ][dR][dF][dI][dN][dC]-OH; disulfide 5-13) | – | – | – | – | 86 | 83 | 87 | 96
CC[C@@H](C)[C@H]1NC(=O)[C@@H](Cc2ccccc2)NC(=O)[C@@H](CCCNC(=N)N)NC(=O)[C@@H]([C@H](C)O)NC(=O)[C@@H](Cc2c[nH]c3ccccc23)NC(=O)[C@@H]([C@H](C)O)NC(=O)[C@H](NC(=O)[C@H](CCCCN)NC(=O)[C@H](CCCCN)NC(=O)[C@H](CCCNC(=N)N)NC(=O)[C@@H](N)CCCNC(=N)N)CSSC[C@H](C(=O)O)NC(=O)[C@@H](CC(N)=O)NC1=O [PSP III B17, H-RRKKctwtrfinc-OH] (H-RRKK[dC][dT][dW][dT][dR][dF][dI][dN][dC]-OH; disulfide 5-13) | – | – | – | – | 86 | 79 | 96 | 96
CC[C@@H](C)[C@H]1NC(=O)[C@@H](Cc2ccccc2)NC(=O)[C@@H](CCCNC(=N)N)NC(=O)[C@@H](CCCNC(=N)N)NC(=O)[C@@H](Cc2c[nH]c3ccccc23)NC(=O)[C@@H]([C@H](C)O)NC(=O)[C@H](NC(=O)[C@H](CCCCN)NC(=O)[C@H](CCCCN)NC(=O)[C@H](CCCNC(=N)N)NC(=O)[C@@H](N)CCCNC(=N)N)CSSC[C@H](C(=O)O)NC(=O)[C@@H](CC(N)=O)NC1=O [PSP III B15, H-RRKKctwrrfinc-OH] (H-RRKK[dC][dT][dW][dR][dR][dF][dI][dN][dC]-OH; disulfide 5-13) | – | – | – | – | 84 | 83 | 91 | 100
CC(C)C[C@H]1NC(=O)[C@@H](Cc2ccccc2)NC(=O)[C@@H](CCCNC(=N)N)NC(=O)[C@@H](CO)NC(=O)[C@@H](CCCCN)NC(=O)[C@@H]([C@H](C)O)NC(=O)[C@H](N)CSSC[C@H](C(=O)O)NC(=O)[C@@H](CC(N)=O)NC1=O [PSP 10, H-ctksrflnc-OH] (H-[dC][dT][dK][dS][dR][dF][dL][dN][dC]-OH; disulfide 1-9) | 50 | 88.2 | 82.5 | 95.5 | – | – | – | –
CC[C@@H](C)[C@H]1NC(=O)[C@@H](Cc2ccccc2)NC(=O)[C@@H](CCCNC(=N)N)NC(=O)[C@@H](C(C)C)NC(=O)[C@@H](Cc2c[nH]c3ccccc23)NC(=O)[C@@H]([C@H](C)O)NC(=O)[C@H](NC(=O)[C@H](CCCCN)NC(=O)[C@H](CCCCN)NC(=O)[C@H](CCCNC(=N)N)NC(=O)[C@@H](N)CCCNC(=N)N)CSSC[C@H](C(=O)O)NC(=O)[C@@H](CC(N)=O)NC1=O [PSP III B18, H-RRKKctwvrfinc-OH] (H-RRKK[dC][dT][dW][dV][dR][dF][dI][dN][dC]-OH; disulfide 5-13) | – | – | – | – | 88 | 90 | 100 | 100
C[C@H](O)[C@H]1NC(=O)[C@H](N)CSSC[C@H](C(=O)O)NC(=O)[C@@H](CC(N)=O)NC(=O)[C@@H](Cc2c[nH]cn2)NC(=O)[C@@H](Cc2ccccc2)NC(=O)[C@@H](CCCNC(=N)N)NC(=O)[C@@H](CO)NC(=O)[C@@H](CCCCN)NC1=O [PSP 7, H-ctksrfhnc-OH] (H-[dC][dT][dK][dS][dR][dF][dH][dN][dC]-OH; disulfide 1-9) | 31.8 | 23.5 | 76.3 | 81.8 | – | – | – | –
CC(C)[C@H]1NC(=O)[C@@H](Cc2ccccc2)NC(=O)[C@@H](CCCNC(=N)N)NC(=O)[C@@H](CO)NC(=O)[C@@H](CCCCN)NC(=O)[C@@H]([C@H](C)O)NC(=O)[C@H](N)CSSC[C@H](C(=O)O)NC(=O)[C@@H](CC(N)=O)NC1=O [PSP 18, H-ctksrfvnc-OH] (H-[dC][dT][dK][dS][dR][dF][dV][dN][dC]-OH; disulfide 1-9) | 45.5 | 51.9 | 78.4 | 70.4 | – | – | – | –
CC[C@@H](C)[C@H]1NC(=O)[C@@H](Cc2ccccc2)NC(=O)[C@@H](CCCNC(=N)N)NC(=O)[C@@H](Cc2c[nH]c3ccccc23)NC(=O)[C@@H](Cc2c[nH]c3ccccc23)NC(=O)[C@@H]([C@H](C)O)NC(=O)[C@H](NC(=O)[C@H](CCCCN)NC(=O)[C@H](CCCCN)NC(=O)[C@H](CCCNC(=N)N)NC(=O)[C@@H](N)CCCNC(=N)N)CSSC[C@H](C(=O)O)NC(=O)[C@@H](CC(N)=O)NC1=O [PSP III B19, H-RRKKctwwrfinc-OH] (H-RRKK[dC][dT][dW][dW][dR][dF][dI][dN][dC]-OH; disulfide 5-13) | – | – | – | – | 97 | 94 | 100 | 100
CC[C@@H](C)[C@H]1NC(=O)[C@@H](Cc2ccccc2)NC(=O)[C@@H](CCCNC(=N)N)NC(=O)[C@@H](CC(N)=O)NC(=O)[C@@H](Cc2c[nH]c3ccccc23)NC(=O)[C@@H]([C@H](C)O)NC(=O)[C@H](NC(=O)[C@H](CCCCN)NC(=O)[C@H](CCCCN)NC(=O)[C@H](CCCNC(=N)N)NC(=O)[C@@H](N)CCCNC(=N)N)CSSC[C@H](C(=O)O)NC(=O)[C@@H](CC(N)=O)NC1=O [PSP III B12, H-RRKKctwnrfinc-OH] (H-RRKK[dC][dT][dW][dN][dR][dF][dI][dN][dC]-OH; disulfide 5-13) | – | – | – | – | 83 | 75 | 87 | 100
CC[C@@H](C)[C@H]1NC(=O)[C@@H](Cc2ccccc2)NC(=O)[C@@H](CCCNC(=N)N)NC(=O)[C@H]2CCCN2C(=O)[C@@H](Cc2c[nH]c3ccccc23)NC(=O)[C@@H]([C@H](C)O)NC(=O)[C@H](NC(=O)[C@H](CCCCN)NC(=O)[C@H](CCCCN)NC(=O)[C@H](CCCNC(=N)N)NC(=O)[C@@H](N)CCCNC(=N)N)CSSC[C@H](C(=O)O)NC(=O)[C@@H](CC(N)=O)NC1=O [PSP III B13, H-RRKKctwprfinc-OH] (H-RRKK[dC][dT][dW][dP][dR][dF][dI][dN][dC]-OH; disulfide 5-13) | – | – | – | – | 79 | 63 | 83 | 96
C[C@H](O)[C@H]1NC(=O)[C@H](N)CSSC[C@H](C(=O)O)NC(=O)[C@@H](CC(N)=O)NC(=O)[C@@H](Cc2ccc(O)cc2)NC(=O)[C@@H](Cc2ccccc2)NC(=O)[C@@H](CCCNC(=N)N)NC(=O)[C@@H](CO)NC(=O)[C@@H](CCCCN)NC1=O [PSP 20, H-ctksrfync-OH] (H-[dC][dT][dK][dS][dR][dF][dY][dN][dC]-OH; disulfide 1-9) | 63.6 | 73.5 | 81.4 | 95.5 | – | – | – | –
CC[C@@H](C)[C@H]1NC(=O)[C@@H](Cc2ccccc2)NC(=O)[C@@H](CCCNC(=N)N)NC(=O)[C@@H]([C@H](C)CC)NC(=O)[C@@H](Cc2c[nH]c3ccccc23)NC(=O)[C@@H]([C@H](C)O)NC(=O)[C@H](NC(=O)[C@H](CCCCN)NC(=O)[C@H](CCCCN)NC(=O)[C@H](CCCNC(=N)N)NC(=O)[C@@H](N)CCCNC(=N)N)CSSC[C@H](C(=O)O)NC(=O)[C@@H](CC(N)=O)NC1=O [PSP III B8, H-RRKKctwirfinc-OH] (H-RRKK[dC][dT][dW][dI][dR][dF][dI][dN][dC]-OH; disulfide 5-13) | – | – | – | – | 81 | 88 | 91 | 100
C[C@H](O)[C@H]1NC(=O)[C@H](N)CSSC[C@H](C(=O)O)NC(=O)[C@@H](CC(N)=O)NC(=O)[C@@H](CCCNC(=N)N)NC(=O)[C@@H](Cc2ccccc2)NC(=O)[C@@H](CCCNC(=N)N)NC(=O)[C@@H](CO)NC(=O)[C@@H](CCCCN)NC1=O [PSP 15, H-ctksrfrnc-OH] (H-[dC][dT][dK][dS][dR][dF][dR][dN][dC]-OH; disulfide 1-9) | – | 11.5 | 61.9 | 3.7 | – | – | – | –
